Experimental data: US12642809B2, “Fucosylation and immune modulation in cancer” (H. LEE MOFFITT CANCER CENTER AND RESEARCH INSTITUTE, INC., priority 2019, dated 2026)
“Also recorded” adds a separate entry of the source.

How the values were obtained:
[1] = tested on: melanoma tumors; conditions: cited from earlier work
[2] = tested on: SM1 melanoma tumors; experiment: SM1 melanoma tumors in C57BL/6 mice fed control or L-fucose water; assay type: in vivo, mouse
Experimental: Tumors of SW1 or SMI melanoma cells from C3H/HeJ or C57BL/6 mice, respectively) were digested using 1× tumor digest buffer (0.5 mg/ml. Collagenase I, 0.5 mg/ml. Collagenase IV, 0.25 mg/ml. Hyalyronidase V. 0.1 mg/ml. DNAse I in HBSS (Millipore Sigma (St. Louis, MO)). Tumors were homogenized using the Miltenyi MACs dissociator. Red blood cells were lysed using ACK lysis buffer (Life Technologies, (Grand Island, NY)). Tumor homogenate cells were counted using a standard hemocytometer. (7) Flow Cytometry (a) TIL Profiling:
Single-cell suspensions from tumor and spleen tissue were stained with Live/Dead Zombie NIR (Biolegend, (San Diego, CA)) at 1:1,000 in PBS for 20 min. Cell suspensions were spun down and stained with the following antibodies: APC anti-mouse CD3 (0.5 μg/mL, BD Biosciences (San Jose, CA)), Pacific Blue anti-mouse CD4 ([…], BD Biosciences (San Jose, CA)), BV785 anti-mouse CD8 (0.5 μg/mL, BD Biosciences (San Jose, CA)), PerCP anti-mouse CD25 ([…], BD Biosciences (San Jose, CA)), FITC anti-mouse F4/80 (0.5 μg/mL, BD Biosciences (San Jose, CA)), PeCy7 anti-mouse CD11c (0.5 μg/mL, BD Biosciences (San Jose, CA)), PE anti-mouse NK1.1 (0.5 μg/mL, BD Biosciences (San Jose, CA)), PE anti-mouse DX5 (0.5 μg/mL, BD Biosciences (San Jose, CA)), PerCP-Cy5.5 anti-mouse CD11b (0.5 μg/mL, BD Biosciences (San Jose, CA)). After staining, the cells were washed and fixed (2% formaldehyde), followed by another wash and flow cytometric analysis. The compensation controls were prepared using 0.5 μg/ml. of each antibody with beads UltraComp eBeads™, (ThermoFisher Scientific (Waltham, MA)). All samples were subject to flow cytometric analysis using a LSR Flow Cytometer (BD Biosciences (San Jose, CA)). Flow cytometric data was further analyzed using FlowJo™ analysis software (BD Biosciences (San Jose, CA)). TIL profiles were determined as a measure of TIL subpopulations per gram of tumor tissues or % of total splenocytes.
FFPE mouse tumor sections were immunostained with FITC-conjugated AAL lectin (0.4 μg/mL, Vector Laboratories (Burlingame, CA)), rabbit anti-Mart-1 (0.2 μg/mL, Millipore Sigma (St. Louis, MO), and rabbit anti-S100 (0.2 μg/mL, Agilent Technologies (Santa Clara, CA)), followed by AlexaFluor 594 donkey anti-rabbit secondary antibody (0.05 μg/mL, ThermoFisher Scientific (Waltham, MA)). The slides were mounted with VECTASHIELD®+DAPI (Vector Laboratories (Burlingame, CA)). Microscopy images were acquired using a Keyence BZ-X710 microscope (Osaka, Japan), and images were measured for AAL-positive signal within MARTI-/S 100-positive regions (designated as melanoma regions of interest) using FIJI software (NIH). Statistical analysis was performed using GraphPad Prism™ (San Diego, CA).
Four-to-six-week-old female C3HeN and male C57BL6 mice were purchased from Charles Rivers Laboratories for the indicated experiments. Four-to-six-week-old male NSG mice from the Lau laboratory breeding colony were used for the indicated experiments. Mice were housed in the Comparative Medicine Facility at H. Lee Moffitt Cancer Center and Research Institute. Mouse tumor volumes were measured using length, width and depth divided by 2. Generally, 10 mice were assigned to each indicated treatment cohort, and 1×10^6 melanoma cells were subcutaneously injected into the right rear flanks of the recipient mice. At each experimental endpoint, mice were humanely euthanized using CO2 inhalation in accordance to the American Veterinary Medical Association guidelines. […] All experiments were approved by the Institutional Animal Care and Use Committee (IACUC) in accordance with the National Research Council guidelines.
SW1 or SMI mouse melanoma cells were injected into syngeneic C3H/HeN (or NSG) female or C57BI/6 male mice, respectively. […]

[3] = tested on: HLA-DRB1; experiment: Flow cytometry of cell surface HLA-DRB1 in melanoma cells; assay type: cell-based, human; conditions: 250 μM, 72 h, panel of melanoma cell lines
Experimental: Indicated cells were treated for 72 h with DMSO, 250 μM fucosyltransferase inhibitor (FUTi) (Millipore Sigma (St. Louis, MO)), or 250 μM of L-fucose (Biosynth (Oak Terrace, IL)). After 72 h, cells were stained with 0.1 μM PKH26 (Millipore Sigma (St. Louis, MO)) prior to fixation in 4% formaldehyde solution. The cells were stained with anti-HLA-DRB1 (rabbit anti-human HLA-DRB1 (0.2 μg/mL, ab92371, Abcam (Cambridge, UK)) and fluorescein AAL (0.2 μg/ml. Vector Labs (Burlingame, CA)), or anti-human or anti-mouse PD-L1 (Novus Biologicals (Centennial, CO) or Biolegend (San Diego, CA), respectively) overnight. The following day the cells were washed 3 times prior to adding AlexaFluor 594 donkey anti-rabbit (0.8 μg/mL, ThermoFisher Scientific (Waltham, MA)). Cells were washed 3 times and then subject to flow cytometric analyses using a FACSCalibur™ (BD Biosciences (San Jose, CA)). Samples were analyzed using FlowJo™ analysis software (BD Biosciences (San Jose, CA)). Median values of DRB1 and AAL were normalized to PKH26 values and statistical analysis was performed using GraphPad Prism™.

[4] = 100 mM L-fucose in drinking water

Compound: C[C@H](O)[C@@H](O)[C@@H](O)[C@H](O)C=O [L-fucose]
- tumor suppression ([1]; 100 mM fucose dietary supplementation): increased tumor suppression
- block/reduction of tumor growth (and metastasis) ([1]; dietary L-fucose supplementation): > 50%
- NK cells and CD4+ T cells in tumor samples ([1]; fucose supplemented mice): elevated
- decreased tumor volume [2, 4]: ~60%
- increase in tumor fucosylation [2, 4]: ~4 fold
- absolute counts of each TIL subpopulation ([2]; flow cytometry): significantly increased
- increase in CD3+ T cell subpopulation ([2]; flow cytometry): ~15 fold
- increase in CD4+ and CD8+ T cells ([2]; flow cytometry): 10-100 fold
- increase in total TILs ([2]; flow cytometry): ~10 fold
- splenic lymphocyte profiles ([2]; flow cytometry): did not significantly alter
- cell surface HLA-DRB1 relative to DMSO [3]: promotes cell surface abundance; also recorded: increased
- cell surface HLA-DRB1 relative to DMSO ([3]; listed as L-fuc): increased
